Measured values taken from patent publication US7919517B2, “Indazole derivatives” (Kyowa Hakko Kirin Co., Ltd., priority 2003, dated 2011).
Counter-ions that a name gives are not always drawn.

What was measured:
Type in all cases: cell-based
[1] = test system: human chronic myeloid leukemia cell line K562; assay: Cytostatic activity on leukemia cell line K562 (WST-1); settings: 72 hours, K562 cells; for inhibition at 10 µM: Homo sapiens, 10 μmol/L, read-out: cytostatic rate K562 (%) (10 μmol/L)
Procedure: (§1) The cytostatic rates of a test compound on human acute myeloid leukemia cell lines MV-4-11 and ML-1, and human chronic myeloid leukemia cell line K562 were determined in the following manner.
(§2) Each cell was cultured using Roswell Park Memorial Institute's Medium (RPMI) 1640 (Gibco, Catalog No. 11875-093) containing 10% fetal bovine serum (Gibco, Catalog No. 10437-028) and 1% penicillin/streptomycin (1:1) (Gibco, Catalog No. 15140-122). Each 80 μL of the MV-4-11 cell having a concentration of 7.5×10^4 cells/mL (or the ML-1 cell or K562 cell having a concentration of 2.5×10^4 cells/mL) was inoculated to wells of a TC MICROWELL 96U plate (Nalge Nunc International, Catalog No. 163320) and was cultured in a 5% carbon dioxide gas incubator at 37° C. for 4 hours. As a blank, only RPMI medium (80 μL) was added to a well. Each 20 μL of a solution of the test compound in dimethyl sulfoxide (DMSO) which was prepared to make the final concentration to 10 μmol/L, was added to the MV-4-11 cell, ML-1 cell and K562 cell, respectively. Each 20 μL of DMSO was added to the control well and the blank well to […]. After adding the test compound, the cells were incubated in a 5% carbon dioxide gas incubator at 37° C. for 72 hours. After adding 20 μL of WST-1 reagent {4-[3-(4-iodophenyl)-2-(4-nitrophenyl)-2H-5-tetrazolio]-1,3-benzene disulfonate sodium salt} (Roche Diagnostics K.K., Catalog No. 1644807) diluted to 50% with RPMI medium, the cells were further incubated at 37° C. for 2 hours. Then, the absorbances at 450 nm (reference wavelength: 690 nm) were determined with a microplate spectrophotometer SPECTRA max 340PC (Molecular Devices Corporation). The relative growth (%) of a well to which the test compound had been added was determined while setting the absorbance of a well to which not the test compound but DMSO alone had been added (control) at 100% and that of a well containing RPMI medium alone at 0%. The cytostatic rate (%) of the test compound was determined by subtracting the calculated relative growth from 100.

[2] = test system: human acute myeloid leukemia cell line ML-1; assay: Cytostatic activity on leukemia cell line ML-1 (WST-1); settings: 72 hours, ML-1 cells; for inhibition at 10 µM: Homo sapiens, ML1, 10 μmol/L, read-out: cytostatic rate ML-1 (%) (10 μmol/L)
Procedure: as §1, §2

[3] = test system: human acute myeloid leukemia cell line MV-4-11; assay: Cytostatic activity on leukemia cell line MV-4-11 (WST-1); settings: 72 hours, MV-4-11 cells; for inhibition at 10 µM: Homo sapiens, MV4-11, 10 μmol/L, read-out: cytostatic rate MV-4-11 (%) (10 μmol/L)
Procedure: as §1, §2

[4] = test system: human colon cancer cell line Colo205; assay: Cytostatic activity on solid carcinoma cell line Colo205 (WST-1); settings: Homo sapiens, COLO 205; 10 μmol/L, 72 hours, Colo205 cells; read-out: cytostatic rate Colo205 (%) (10 μmol/L)
Procedure: as §2
The cytostatic rate of a test compound on the human colon cancer cell line Colo205 was determined in the following manner.
The cell was cultured using Roswell Park Memorial Institute's Medium (RPMI) 1640 (Gibco, Catalog No. 11875-093) containing 10% fetal bovine serum (Gibco, Catalog No. 10437-028) and 1% penicillin/streptomycin (1:1) (Gibco, Catalog No. 15140-122). Each 80 μL of the Colo205 having a concentration of 1.25×10^4 cells/mL was inoculated to wells of a TC MICROWELL 96F plate (Nalge Nunc International, Catalog No. 167008) and was cultured in a 5% carbon dioxide gas incubator at 37° C. for 24 hours. As a blank, only RPMI (80 μL) was added to a well. Each 20 μL of a solution of the test compound in DMSO which was prepared to make the final concentration to 10 μmol/L, was added to the Colo205 cell. Each 20 μL of DMSO was added to the control well and the blank well to […]. After adding the test compound, the cell was incubated in a 5% carbon dioxide gas incubator at 37° C. for 72 hours. The cytostatic rate (%) was then determined in the same way as the leukemia cell lines.

| SMILES | inhibition at 10 µM [1] | inhibition at 10 µM [2] | inhibition at 10 µM [3] | inhibition at 10 µM [4] | cytostatic rate K562 (%) (10 μmol/L) [1] | cytostatic rate ML-1 (%) (10 μmol/L) [2] | cytostatic rate MV-4-11 (%) (10 μmol/L) [3] |
| --- | --- | --- | --- | --- | --- | --- | --- |
| CN(C)C(=O)c1ccc(/C=C/c2n[nH]c3ccccc23)cc1 [Compound 1, (E)-N,N-Dimethyl-4-[2-(1H-indazol-3-yl)vinyl]benzamide] | 95% | 93% | 98% | – | – | – | – |
| CS(=O)(=O)Nc1cc(/C=C/c2n[nH]c3ccccc23)ccc1OCCN1CCOCC1 [Compound 7, (E)-N-{5-[2-(1H-Indazol-3-yl)vinyl]-2-(2-morpholinoethoxy)phenyl}methanesulfonamide] | 98% | 97% | 97% | 89% | – | – | – |
| NC(=O)c1cc(/C=C/c2n[nH]c3ccccc23)ccc1OCCN1CCOCC1 [Compound 8, (E)-5-[2-(1H-Indazol-3-yl)vinyl]-2-(2-morpholinoethoxy)benzamide] | 95% | 84% | 95% | – | – | – | – |
| O=C(c1ccc(/C=C/c2n[nH]c3ccccc23)cc1)N1CCOCC1 [Compound 9, (E)-1{4-[2-(1H-indazol-3-yl)vinyl]benzoyl}morpholine] | – | – | – | – | 98% | 90% | 91% |
| O=C(NCCN1CCOCC1)c1ccc(/C=C/c2n[nH]c3ccccc23)cc1 [Compound 10, (E)-N-(2-morpholinoethyl)-4-[2-(1H-indazol-3-yl)vinyl]benzamide] | 99% | 83% | 91% | 41% | – | – | – |
| CC(=O)N1CCN(C(=O)c2ccc(/C=C/c3n[nH]c4ccccc34)cc2)CC1 [Compound 13, (E)-4-Acetyl-1-{4-[2-(1H-indazol-3-yl)vinyl]benzoyl}piperazine] | 99% | 90% | 94% | – | – | – | – |
| CNC(=O)c1ccc(/C=C/c2n[nH]c3ccccc23)cc1 [Compound 14, (E)-N-Methyl-4-[2-(1H-indazol-3-yl)vinyl]benzamide] | 98% | 84% | 76% | – | – | – | – |
| CCN(CC)C(=O)c1ccc(/C=C/c2n[nH]c3ccccc23)cc1 [Compound 15, (E)-N,N-Diethyl-4-[2-(1H-indazol-3-yl)vinyl]benzamide hydrochloride] | 100% | 94% | 91% | 92% | – | – | – |
| Cl.O=C(c1ccc(/C=C/c2n[nH]c3ccccc23)cc1)N1CCC2(CC1)OCCO2 [Compound 16, (E)-4-ethylenedioxy-1-{4-[2-(1H-indazol-3-yl)vinyl]benzoyl}piperidine hydrochloride] | – | – | – | – | 94% | 97% | 89% |
| O=C(c1ccc(/C=C/c2n[nH]c3ccccc23)cc1)N1CCNCC1 [Compound 18, (E)-1-{4-[2-(1H-indazol-3-yl)vinyl]benzoyl}piperazine] | 91% | 76% | 98% | 85% | – | – | – |
| O=CN1CCN(C(=O)c2ccc(/C=C/c3n[nH]c4ccccc34)cc2)CC1 [Compound 19, (E)-4-{4-[2-(1H-indazol-3-yl)vinyl]benzoyl}piperazine-1-carbaldehyde] | 78% | 89% | 97% | 89% | – | – | – |
| CS(=O)(=O)Nc1cccc(/C=C/c2n[nH]c3ccccc23)c1 [Compound 27, (E)-N-{3-[2-(1H-indazol-3-yl)vinyl]phenyl}methanesulfonamide] | 55% | 77% | 94% | 80% | – | – | – |
| CCOC(=O)N1CCN(C(=O)c2ccc(/C=C/c3n[nH]c4ccccc34)cc2)CC1 [Compound 32, (E)-1-{4-[2-(1H-indazol-3-yl)vinyl]benzoyl}-4-ethoxycarbonylpiperazine] | 86% | 80% | 94% | 85% | – | – | – |
| CC(C)(C)C(=O)N1CCN(C(=O)c2ccc(/C=C/c3n[nH]c4ccccc34)cc2)CC1 [Compound 40, (E)-1-{4-[2-(1H-indazol-3-yl)vinyl]benzoyl}-4-(pivaloyl)piperazine] | 96% | 67% | 98% | 88% | – | – | – |
| O=C(c1ccc(/C=C/c2n[nH]c3ccccc23)cc1)N1CCN(C(=O)N2CCOCC2)CC1 [Compound 41, (E)-1-{4-[2-(1H-indazol-3-yl)vinyl]benzoyl}-4-(morpholinocarbonyl)piperazine] | 95% | 83% | 97% | 90% | – | – | – |
| O=C(c1ccncc1)N1CCN(C(=O)c2ccc(/C=C/c3n[nH]c4ccccc34)cc2)CC1 [Compound 44, (E)-1-{4-[2-(1H-indazol-3-yl)vinyl]benzoyl}-4-(isonicotinoyl)piperazine] | 92% | 85% | 98% | 91% | – | – | – |
| O=C(c1ccccc1)N1CCN(C(=O)c2ccc(/C=C/c3n[nH]c4ccccc34)cc2)CC1 [Compound 46, (E)-1-{4-[2-(1H-indazol-3-yl)vinyl]benzoyl}-4-benzoylpiperazine] | 93% | 82% | 98% | 87% | – | – | – |
| CS(=O)(=O)N1CCN(C(=O)c2ccc(/C=C/c3n[nH]c4ccccc34)cc2)CC1 [Compound 47, (E)-1-{4-[2-(1H-indazol-3-yl)vinyl]benzoyl}-4-(methanesulfonyl)piperazine] | 88% | 88% | 97% | 91% | – | – | – |
| O=C(c1ccc(/C=C/c2n[nH]c3ccccc23)cc1)N1CCC(C(=O)N2CCOCC2)CC1 [Compound 51, (E)-1-{4-[2-(1H-indazol-3-yl)vinyl]benzoyl}-4-(morpholinocarbonyl)piperidine] | 95% | 89% | 98% | 90% | – | – | – |
| O=C(c1ccc(/C=C/c2n[nH]c3ccccc23)cc1)N1CCN(C(=O)C2CC2)CC1 [Compound 55, (E)-4-cyclopropanecarbonyl-1-{4-[2-(1H-indazol-3-yl)vinyl]benzoyl}piperazine] | 81% | 83% | 97% | 89% | – | – | – |
| CC(C)C(=O)N1CCN(C(=O)c2ccc(/C=C/c3n[nH]c4ccccc34)cc2)CC1 [Compound 56, (E)-4-isobutyryl-1-{4-[2-(1H-indazol-3-yl)vinyl]benzoyl}piperazine] | 87% | 78% | 98% | 88% | – | – | – |
| O=C(c1ccc(/C=C/c2n[nH]c3ccccc23)cc1)N1CCN(C(=O)c2ccsc2)CC1 [Compound 58, (E)-4-(3-thiophenecarbonyl)-1-{4-[2-(1H-indazol-3-yl)vinyl]benzoyl}piperazine] | 89% | 74% | 96% | 85% | – | – | – |
| NCC(=O)N1CCN(C(=O)c2ccc(/C=C/c3n[nH]c4ccccc34)cc2)CC1 [Compound 61, (E)-4-aminoacetyl-1-{4-[2-(1H-indazol-3-yl)vinyl]benzoyl}piperazine hydrochloride] | 85% | 79% | 98% | 87% | – | – | – |
